Data from US20160304957A1, “TREATMENT AND MODULATION OF GENE EXPRESSION AND SKIN AGING” (DSM NUTRITIONAL PRODUCTS LTD., priority 2006, published 2016).

Columns and labels:
[1] = system: TIMP-1; experiment: ELISA of TIMP-1 release into cell culture supernatant of HaCaT cells; format: cell-based, human; settings: β-carotene, with or without UVA
Experimental: HaCaT cells were supplemented with 0.5, 1.5, or 3 μM β-carotene for 2 days prior to UVA (270 kJ/m^2) irradiation. MMP-1 and TIMP-1 secretion 24 hours after irradiation was analyzed by ELISA. Each condition was represented by three replicates in the experiment. Values are means±standard error.
Release of MMP-1, and TIMP-1 into cell culture supernatant was determined by ELISA at 24 hours after irradiation. MMP-1 and TIMP-1 release was measured using MMP-1 and TIMP ELISA from CALBIOCHEM (San Diego, Calif., USA). The ELISAs were performed according to the manufacturer's instructions.

[2] = system: RARγ; experiment: QRT-PCR gene expression in HaCaT cells with or without UVA; format: cell-based, human
Experimental: HaCaT cells were obtained from Prof. Fusenig, German Cancer Research Centre, Heidelberg. […] The accuracy of cell counting was approximately 99%.
On day 3 of the experiment, cells were washed six times with Ca/Mg-free PBS containing 2% BSA, and then irradiated with light with a Hönle sun lamp Sol 500 (Dr. Hönle, Plannegg, Germany) at a dose of 270 kJ/m^2 in Ca/Mg-free PBS (2 hour exposure time at […]). The experimental schedule was chosen because the cells had optimal UVA sensitivity after 48 hours in culture. […] Confluent cultures were much less sensitive to irradiation.
After irradiation, the cells were supplied with fresh β-carotene-containing serum-free medium and kept in the incubator at 37° C., 5% CO2 until harvest of the samples. In experiments in which the half-life of ^1O2 was prolonged by D2O to enhance its effect, PBS was prepared in D2O, instead of in H2O, as it was done for the standard conditions described above. Cells were washed twice in D2O-PBS prior to irradiation in D2O-PBS. After irradiation, cells were maintained with fresh β-carotene-containing serum-free medium. Sham controls were treated in an identical manner, by placing them under the solar simulator but shielded from light.
Total RNA was isolated by using Trizol™ (Invitrogen, Basel, Switzerland) according to the instructions of the manufacturer. Random-primed cDNA was synthesized using the Superscript pre-amplification system for first strand cDNA synthesis (Invitrogen).
cDNA corresponding to 10 ng total RNA was used as template to quantify the relative RNA expression of the genes of interest by TaqMan® real time PCR.
The PCR analyses were carried out in triplicate and in a multiplex setup, using 18S rRNA as a calibrator gene. The rRNA primers were used at a final concentration of 50 nM, the probe at 100 nM. For quantification of the genes of interest, the primer concentrations were optimized for sensitivity of template detection. […] PCR reactions were carried out for 40 cycles of 95° C. for 15 seconds and 60° C. for 1 minute in an ABI7700 (Applied Biosystems, Rotkreuz, Switzerland). Regulation of gene expression was calculated as described in user bulletin #2 provided by the manufacturer. A threshold cycle (“CT”) is the first PCR cycle in which an amplification signal is detected. Expression levels are given as δCT values. The δCT value describes the level of gene expression as the average PCR cycle, in which the gene of interest was detected first (CT value), subtracted by the CT value of the calibrator gene 18S rRNA (CTgene of interest−CTcalibrating gene), 18S rRNA served as a measure for the amount of template in the reaction. Routinely, 18S rRNA was detected between PCR cycle 12 and 13 (SE=standard error) A low δCT corresponds to a high mRNA level.
HaCaT cells were pretreated for 2 days with 0.5, 1.5 or 3 μM β-carotene. The cells were irradiated with UVA (270 kJ/m^2) either in D2O-containing PBS or in H2O-containing PBS, to analyze ^1O2 inducibility of genes. Gene expression 5 hours after UVA irradiation was analyzed by QRT-PCR. Values are geometric means±standard error from three independent experiments. Upregulations greater than 1.5-fold are labelled in bold black, downregulations below 0.66-fold are bold grey.

In the case of `CC1=C(/C=C/C(C)=C/C=C/C(C)=C/C=C/C=C(C)/C=C/C=C(C)/C=C/C2=C(C)CCCC2(C)C)C(C)(C)CCC1` [β-carotene, All-E-β-carotene], the TIMP-1 protein level [1] is reported as “not significantly influenced”, the “basal or UVA-regulated expression level of RARγ” value [2] is reported as “no significant effect” and the RARγ fold induction ([2]; D2O, UVA/βC 0.5 μM) is reported as 0.63 fold. The RARγ fold induction ([2]; D2O, UVA/βC 1.5 μM) was 0.67 fold, the RARγ fold induction ([2]; D2O, UVA/βC 3 μM) was 0.76 fold and the RARγ fold induction ([2]; D2O, βC 0.5 μM) was 0.94 fold. It also gave an RARγ fold induction ([2]; D2O, βC 1.5 μM) of 1.11 fold, an RARγ fold induction ([2]; D2O, βC 3 μM) of 1.12 fold and an RARγ fold induction ([2]; H2O, UVA/βC 0.5 μM) of 0.85 fold. The RARγ fold induction ([2]; H2O, UVA/βC 1.5 μM) was 0.15 fold, the RARγ fold induction ([2]; H2O, UVA/βC 3 μM) was 0.54 fold and the RARγ fold induction ([2]; H2O, βC 0.5 μM) was 0.74 fold. It also gave an RARγ fold induction ([2]; H2O, βC 1.5 μM) of 0.86 fold and an RARγ fold induction ([2]; H2O, βC 3 μM) of 0.90 fold.
